The source of these data is ChEMBL document CHEMBL1143517, “Synthesis and in vitro leishmanicidal activity of 2-(5-nitro-2-furyl) and 2-(5-nitro-2-thienyl)-5-substituted-1,3,4-thiadiazoles” (Bioorg Med Chem Lett, 2005).

The test system of this assay is Leishmania major. Briefly: In vitro inhibition of growth of Leishmania major promastigotes with the compound dissolved in DMSO using 3-H thymidine incorporation. It counts as functional, organism-based. On the technique in general: Dividing cells build labelled thymidine or BrdU into new DNA.
As for `O=[N+]([O-])c1ccc(-c2nnc(N3CCNCC3)s2)o1`, the IC50 (in general, the midpoint of a concentration-inhibition curve) is 8.9 µM. Take `O=C(c1ccccc1)N1CCN(c2nnc(-c3ccc([N+](=O)[O-])s3)s2)CC1`: it took 11.1 µM to reach half-maximal inhibition (IC50). Compound `O=[N+]([O-])c1ccc(-c2nnc(N3CCOCC3)s2)s1` displayed an IC50 of 10.6 µM. This IC50 and that of the compound before are within 1.5-fold of each other. With `O=[N+]([O-])c1ccc(-c2nnc(N3CCCCC3)s2)s1`, the IC50 was more than 150 µM. The value for `O=[N+]([O-])c1ccc(-c2nnc(N3CCCCC3)s2)o1` was 3.2 µM; that for `O=[N+]([O-])c1ccc(-c2nnc(N3CCNCC3)s2)s1` was more than 150 µM; that for `O=C(c1ccccc1)N1CCN(c2nnc(-c3ccc([N+](=O)[O-])o3)s2)CC1` was 0.5 µM. The value for `O=[N+]([O-])c1ccc(-c2nnc(N3CCN(c4ccccc4)CC3)s2)o1` was 0.1 µM; that for `CN1CCN(c2nnc(-c3ccc([N+](=O)[O-])s3)s2)CC1` was 103 µM; that for `O=[N+]([O-])c1ccc(-c2nnc(N3CCOCC3)s2)o1` was 5.2 µM.

Compound `CN1CCN(c2nnc(-c3ccc([N+](=O)[O-])o3)s2)CC1` returned an IC50 of 7.3 µM. Take `CC(=O)N1CCN(c2nnc(-c3ccc([N+](=O)[O-])o3)s2)CC1`: the IC50 is 1.1 µM. Regarding `CC(=O)N1CCN(c2nnc(-c3ccc([N+](=O)[O-])s3)s2)CC1`, the 50% inhibitory concentration (IC50) is 48.5 µM. Take `O=[N+]([O-])c1ccc(-c2nnc(N3CCN(c4ccccc4)CC3)s2)s1`: the IC50 was determined as 106 µM. Compared with the last compound, the IC50 is about 2.2-fold higher.
